{"source": "patent US11497813B2", "about": "“Bortezomib conjugates and methods using same” (Frank EBETINO et al., priority 2015, dated 2022)", "key": {"UPS activation": {"test_system": "UPS activation", "experiment": "Ub^G76V-GFP reporter cells (GFP+ cells) in osteoclast cultures and on pre-incubated bone slices", "type": "cell-based, mouse", "conditions": "for GFP+ cells on pre-incubated bone slices: BM cells from Ub^G76V-GFP mice on bone slices pre-incubated with compound", "protocol": "(§1) FIG. 5A is a scheme of an exemplary synthesis of compound BP-Btz1. FIG. 5B is a series of images of bone slices pre-incubated with 1 μM BP-Btz1, Btz, or bisphosphonate (BP) overnight. Drug solutions were removed and bone slices were washed with PBS extensively. […] (BM) cells from UB^G76V-GFP mice were cultured on bone slices in the presence of M-CSF and RANKL for 9 days. Top images (a): GFP^+ cells were observed under a fluorescence microscope and GFP signal intensity was quantified. Middle images (b): bone slices were fixed and subjected to TRAP staining for osteoclasts (OCs). OC #/slice were counted. Bottom images (c): cells were removed from slices. Toluidine blue staining was performed and pit areas/slice were counted. FIG. 5C is a series of images of murine BM cells cultured and stained for ALP. FIG. 5D is a series of images of human MSCs cultured and stained for ALP. Murine BM cells and human MSCs were cultured in the OB-inducing medium plus different concentrations of BP-Btz1 or Btz for 4 or 6 days, respectively. Cells were stained for ALP. The ALP^+ areas were measured by Image J. *P<0.05 vs. Btz-treated cells.\n1. Ub^G76V-GFP mice in B6 background (Stock #008111, Jax lab) are generated using previously described methods (Lindsten et al., 2003, Nat. Biotech. 21:897-902). The Ub^G76V-GFP transgene was designed with a chicken beta-actin promoter and CMV immediate early enhancer upstream of a GFP fused to a mutant ubiquitin moiety (Ub^G76V), a constitutively active proteasome degradation signal. Following proteasome inhibitor administration, Ub^G76V accumulates and GFP fluorescence is readily apparent. GFP^+ OCs were detected at 4 and 8 hrs after adding Btz to OC cultures, which disappeared at 24 hrs. […] 2. OC formation and resorption assays and data analyses are performed as described herein (FIG. 4) and using previously described methods (Zhang et al., 2014, J. Clin. Invest. 124:3200-3214; Xiu et al., 2014, J. Clin. Invest. 124:297-310). […] The number and area of OCs and resorption pits are assessed. The appearance, intensity and distribution of GFP^+ cells on bone slices and plastic surrounding bone slices during OC formation is observed and recorded. 3. OB differentiation. Third passages of BM stromal cells are used as MPCs, as previously described (Shu et al., 2013, J. Bone Min. Res. 28:1925-1935; Zhang et al., 2014, J. Clin. Invest. 124:3200-3214). MPCs are cultured on plastic plates in OB-inducing medium±BP-Btz conjugates, Btz or BP (0.1-100 nM) for 1-3 wks. Plates are subjected to alkaline phosphatase (ALP) and alizarin red staining, and qPCR analyses. Area of ALP^+ and mineralized bone nodule, and the expression levels of OB marker genes (ALP, osteocalcin, Runx2) are measured. GFP^+ cells during OB differentiation are observed as in OCs. In a parallel experiment, human MSCs (from Lonza) are treated with BP-Btz, Btz, or BP in OB-inducing medium and their effects examined on OB differentiation as show in FIGS. 5C and 5D. 4. Western blot/Ub assays. OCPs or MPCs are treated with a preferred dose of leading BP-Btz, Btz and BP. OCP lysates are subjected to Western blot using α-NF-κB members and TRAF6 Abs. OB lysates are subjected to Western blot with α-ubiquitin, Runx2, or JunB Abs, and Ub assays using UbiQapture matrix (Biomol) to pull down Ub-proteins followed by α-Runx2 and JunB Abs using previously described methods (Zhao et al., 2010, J. Bone Min. Res. 25:1246-1256; Zhao et al., 2011, Stem cells 29:1601-1610)."}, "mouse MPCs": {"test_system": "mouse MPCs", "experiment": "Osteoblast differentiation of mouse MPCs (ALP staining)", "type": "cell-based", "protocol": "as §1, with “FIG. 5C is a series of images of murine BM cells cultured and stained for ALP. FIG. 5D is a series of images of human MSCs cultured and stained for ALP. Murine BM cells and human MSCs were cultured in the OB-inducing medium plus different concentrations of BP-Btz1 or Btz for 4 or 6 days, respectively. Cells were stained for ALP.” left out\nMPCs are cultured in the OB differentiation medium plus or minus Btz, BT-Btz1 or BT-Btz2 (0.1, 0.5, 1, 5, 10 μM) for 1 to 3 weeks. […] The area of ALP+ and mineralized bone nodule is assessed. The expression levels of OB marker genes (ALP, osteocalcin, Runx2) is measured.\n1. […] Following proteasome inhibitor administration, Ub^G76V accumulates and GFP fluorescence is readily apparent. GFP^+ OCs were detected at 4 and 8 hrs after adding Btz to OC cultures, which disappeared at 24 hrs. […] The number and area of OCs and resorption pits are assessed. […]"}, "5TGM1-GFP myeloma cells": {"test_system": "5TGM1-GFP myeloma cells", "experiment": "Multiple myeloma model, 5TGM1-GFP myeloma cells in NIH-III nude mice", "type": "in vivo, mouse", "text": "FIG. 25A depicts the groups and treatment used in the experimental examples. FIG. 25B depicts a table of clinical observations. FIG. 25C depicts images of GFP imaging showing the distribution of myeloma cells. FIG. 25D is a table of experimental data showing blood IgG2b levels. FIG. 25E is a table of experimental data showing osteoblast differentiation.\nA MM model was generated using tail vein injection of 5TGM1-GFP myeloma cells into 6-week-old female NIH-III nude mice. Tumor burden and bone volume were examined."}, "WT mice": {"test_system": "WT mice", "experiment": "Bone volume and osteoblast differentiation in WT mice", "type": "in vivo, mouse"}, "[1]": {"conditions": "myeloma mice, compared with Btz"}}, "note": "Entries after “also recorded” stand apart in the source; their conditions may differ.", "data": [{"smiles": "CC(C)C[C@H](NC(=O)[C@H](Cc1ccccc1)NC(=O)c1cnccn1)B1OCCN(CCOC(=O)NC(P(=O)(O)O)P(=O)(O)O)CCO1", "note": "[BP-Btz1]", "values": [{"measurement": "GFP+ cells on pre-incubated bone slices", "setting": "UPS activation", "value": "present"}, {"measurement": "osteoblast differentiation", "setting": "mouse MPCs", "value": "stimulates osteoblast differentiation"}, {"measurement": "peripheral blood platelet and cell numbers (blood counts)", "setting": "5TGM1-GFP myeloma cells; FIG. 27, compared with Btz", "value": "less deleterious effects than Btz; also recorded: reduces side effects on blood counts compared with Btz"}, {"measurement": "osteoblast colonies from bone marrow cells", "setting": "5TGM1-GFP myeloma cells; bone marrow cells from treated myeloma mice", "value": "form more osteoblast colonies"}, {"measurement": "myeloma-induced bone loss", "setting": "5TGM1-GFP myeloma cells; [1]", "value": "reduces tumor burden and myeloma-induced bone loss more effectively than Btz; also recorded: prevents myeloma-induced bone loss more effectively than Btz"}, {"measurement": "tumor burden", "setting": "5TGM1-GFP myeloma cells; [1]", "value": "reduces tumor burden and myeloma-induced bone loss more effectively than Btz"}, {"measurement": "bone volume", "setting": "WT mice; WT mice, FIG. 17", "value": "increases bone volume"}, {"measurement": "osteoblast differentiation", "setting": "WT mice; WT mice, FIG. 17", "value": "increases"}]}, {"smiles": "CC(C)C[C@H](NC(=O)[C@H](Cc1ccccc1)NC(=O)c1cnccn1)B(O)O", "note": "[Btz, [(1R)-3-methyl-1-[[(2S)-1-oxo-3-phenyl-2[(pyrazinylcarbonyl)amino]propyl]amino]butyl] boronic acid]", "values": [{"measurement": "GFP+ OCs after adding compound to OC cultures", "setting": "UPS activation; 4 and 8 hrs", "value": "detected"}, {"measurement": "GFP+ OCs after adding compound to OC cultures", "setting": "UPS activation; 24 hrs", "value": "disappeared"}, {"measurement": "GFP+ cells on pre-incubated bone slices", "setting": "UPS activation", "value": "not"}, {"measurement": "bone volume", "setting": "WT mice; 3-m-old mice, 0.6 mg/kg/i.p. at day 1, 3, 5, read at day 10", "value": "increased bone volume"}]}]}
